Seven compounds from patent US20080003569A1, “Method for the Detection of Intracellular Parameters With Luminescent Protein Probes for the Screening of Molecules Capable of Altering Said Parameters” (priority 2004, published 2008) can be followed below.

Experiment [1] concerns endogenous receptor for ATP P2Y. Put plainly: mt-AEQ photon emission, CHO cells, endogenous ATP receptor. The class given is cell-based. The note with it: ATP 100 μM.
Description: (§2) 36 hours after the transfection, the cells, cultivated on flasks for cellular cultures (75 cm^2), were detached from the bottom by trypsinization. The cellular suspension was then transferred to a Falcon tube (of 15 or 50 ml) and subjected to centrifugation at 1200 rpm in a cell centrifuge at 20° C. and finally the cellular precipitate was re-suspended in KRB/Ca^2+ (Krebs-Ringer modified buffer: 125 mM NaCl, 5 mM KCl, 1 mM CaCl2, 1 mM Na3PO4, 1 mM MgSO4, 5.5 mM glucose, 20 mM HEPES, pH 7.4, 37° C.).
(§3) The prosthetic group celentherazine was added at a final concentration of 5 μM to the suspension of engineered cells expressing the mt-AEQ probe.
(§4) 50 μl of suspension containing transfected cells (corresponding to about 100,000 cells) were planted in each well of the plate. The cells were left to adhere for a time varying from 1 to 2 hours keeping them in the dark, due to the photo-instability of celentherazine.
(§5) At the end of the incubation time, the various molecules to be tested were added to each well and the plate with the treated cells was then put in direct contact with a photo-multiplier which measures the emission of photons on the part of aequorin.
Experiment [2] concerns PKC-aequorin (PKC-AEQ) probe: PKC beta, delta, epsilon, zeta. Put plainly: Translocation of PKC-aequorin probe to the plasmatic membrane, HeLa cells, photon emission. The class given is cell-based. From the text:
In the specific example, the results presented relate to the use of the PKC beta-aequorin (PCKβ-AEQ), PKC delta-aequorin (PCKδ-AEQ), PKC epsilon-aequorin (PCKε-AEQ), PKC zeta-aequorin (PCKζ-AEQ) probes.
These probes were obtained by inserting, in a eukaryotic expression vector (pcDNA3; 5.4 kb), the sequence encoding the various PKC isoforms condensed in frame with the sequence encoding aequorin described above.
The cells cultivated on cellular culture flasks (75 cm^2) were transfected with a vector containing the chimeric probe produced, using the most suitable transfection techniques for the cellular line in question. As the HeLa stabilized cellular line was used as experimental model, the calcium phosphate technique was adopted as transfection method which guarantees a high percentage of positive cells for this cellular line.
(§1) 36 hours after transfection, the cells contained in the flask were detached from the bottom by trypsinization.
The prosthetic group celentherazine was added to the suspension of cells expressing the PKC-aequorin probe at a final concentration of 5 μM. […]

Experiment [3] addresses endogenous receptor for histamine Hi (Homo sapiens, UniProt P35367). The note with it: HeLa mt-AEQ cells, histamine 100 μM.
Description: (§6) The cellular lines thus engineered were then both transfected with the vector containing the mt-AEQ probe by means of the calcium phosphate technique.
as §2, §3, §4
(§7) At the end of the incubation time, the various molecules to be tested were added to each well and the plate with the treated cells was then put in direct contact with a photo-multiplier which measures the emission of photons on the part of aequorin. […]
Experiment [4] concerns beta/alpha adrenergic receptor (chimeric). Put plainly: mt-AEQ photon emission, HeLa cells expressing chimeric beta/alpha adrenergic receptor. The class given is cell-based. The note with it: HeLa mt-AEQ cells with chimeric receptor, isoproterenol 100 μM; from less than 20 before stimulation.
Description: as §6, §2, §3, §4, §7
The subject of the next experiment is beta adrenergic receptor. As to the kind of experiment: mt-AEQ photon emission, control HeLa cells expressing beta adrenergic receptor. The class given is cell-based. The note with it: control HeLa cells expressing a beta adrenergic receptor, stimulated with isoproterenol.
Experiment [5] relates to PKC beta-aequorin (PKCβ-AEQ) probe. As to the kind of experiment: Translocation of PKC beta-aequorin probe under hyperglycaemia conditions, HUVEC cells. The note with it: 10 mM glucose plus metformin 20 μM. The format is cell-based. From the text: A beta-aequorin PKC probe, already described in example 1, was used, with which HUVEC endothelial cells were transfected. The cells cultivated on cellular culture flasks (75 cm^2) were transfected with a vector containing the chimeric probe produced, using the most suitable transfection techniques for the cellular line in question. Endothelial cells of stabilized umbilical cord veins, called HUVEC, were used as the experimental model, which were transfected with the PKC beta-aequorin probe, using lipofectamine which guarantees a high percentage of positive cells for this cellular line. 36 hours after transfection, the cells contained in the flask were detached from the bottom by trypsinization. […] The prosthetic group celentherazine at a final concentration of 5 μM was added to the cell suspension expressing the PKC beta-aequorin probe. […] The example provided was carried out on three parallel batches of cells: a) HUVEC cells expressing the PKC beta-aequorin (PKCβ-AEQ) probe, maintained under control conditions (absence of glucose) (dotted line). b) HUVEC cells expressing the PKC beta-aequorin (PKCβ-AEQ) probe, maintained under hyperglycaemia conditions (10 mM of glucose) (dark, thick line). c) HUVEC cells expressing the PKC beta-aequorin (PKCβ-AEQ) probe, maintained under hyperglycaemia conditions (10 mM of glucose) treated with a well-known anti-diabetic agent, metformin (20 μM) (dark, thin line).

Experiment [6] concerns p66shc-aequorin (p66shc-AEQ) probe. Put plainly: Translocation of p66shc-aequorin probe to the plasmatic membrane, A431 cells. The class given is cell-based.
Description: This probe was obtained by inserting, in a eukaryotic expression vector (pcDNA3; 5.4 kb), the sequence encoding the p66shc protein condensed in frame with the sequence encoding aequorin.
The cells cultivated on cellular culture flasks (75 cm^2) were transfected with a vector containing the chimeric probe produced, using the most suitable transfection techniques for the cellular line in question. The stabilized transfected cellular line A431 was adopted as experimental model, using the “Effectene reagent” procedure (Qiagen, Germany), which guarantees a high percentage of positive cells for this cellular line.
24 hours after the transfection, the cells were maintained in a DMEM culture medium, without serum.
as §1
The prosthetic group celentherazine was added to the suspension of cells expressing the p66shc-aequorin probe, at a final concentration of 5 μM. […]

Experiment [7] has as its system ORL1/alpha adrenergic receptor (chimeric). As to the kind of experiment: mt-AEQ photon emission, CHO cells expressing chimeric ORL1/alpha adrenergic receptor. The class given is cell-based. The note with it: CHO mt-AEQ cells with chimeric receptor, nociceptine 1 μM; from less than 20 before stimulation.
Description: as §6, §2, §3, §4, §7
The mark [8] stands for this setting: from less than 20 before stimulation.

Chain of endogenous receptor for histamine Hi (P35367 whole entry): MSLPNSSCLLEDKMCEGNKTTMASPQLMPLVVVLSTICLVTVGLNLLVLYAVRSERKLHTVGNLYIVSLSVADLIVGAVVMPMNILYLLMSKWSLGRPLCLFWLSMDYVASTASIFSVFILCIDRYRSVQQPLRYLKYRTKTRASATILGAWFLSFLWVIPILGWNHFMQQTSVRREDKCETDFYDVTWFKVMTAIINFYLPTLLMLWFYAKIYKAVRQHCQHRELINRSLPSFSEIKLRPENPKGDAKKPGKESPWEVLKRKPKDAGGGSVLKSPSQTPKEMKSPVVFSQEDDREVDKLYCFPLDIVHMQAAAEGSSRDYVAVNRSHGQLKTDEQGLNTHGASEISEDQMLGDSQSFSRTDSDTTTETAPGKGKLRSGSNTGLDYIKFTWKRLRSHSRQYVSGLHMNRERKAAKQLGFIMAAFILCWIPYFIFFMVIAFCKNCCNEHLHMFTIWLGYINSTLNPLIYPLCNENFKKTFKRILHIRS
Description for beta adrenergic receptor: as §2, §3, §4, §5
HeLa cells expressing a beta adrenergic receptor and stimulated with isoproterenol for inducing the stimulation of said receptor, were used as control (dotted line).

Consider `Nc1ncnc2c1ncn2[C@@H]1O[C@H](COP(=O)(O)OP(=O)(O)OP(=O)(O)O)[C@@H](O)[C@H]1O` [ATP], for which the “concentration of calcium in the mitochondrial matrix” value in experiment [1] was “considerable and transient increase”. Further, the “emission of photons on the part of aequorin” value (“emission … of aequorin” for short) in experiment [1] (setting [8]) was “over 80,000 photons emitted per second”.

On to `CCCCCCCCCCCCCC(=O)O[C@@H]1[C@@H](C)[C@@]2(O)[C@@H](C=C(CO)C[C@]3(O)C(=O)C(C)=C[C@@H]23)[C@@H]2C(C)(C)[C@]12OC(C)=O` [PMA], for which the emission of photons is > 100,000 cps in experiment [2] (HeLa PKC-AEQ cells, PMA 1 μM, after addition of external calcium) and “lower than 100 cps” in experiment [2] (HeLa cells, absence of external calcium).

Consider `NCCc1c[nH]cn1` [histamine, Histamine], for which, in experiment [3], the “concentration of calcium in the mitochondrial matrix” value is “considerable and transient increase”. Also, the “emission … of aequorin” value in experiment [3] (setting [8]) is reported as “over 80,000 photons emitted per second”.

In the case of `CC(C)NCC(O)c1ccc(O)c(O)c1` (centres unmarked) [isoproterenol, Isoproterenol], the “emission … of aequorin” value in experiment [4] was “over 80,000 photons emitted per second”. The increase in cps result in the experiment on beta adrenergic receptor is on record as “does not induce any increase in cps”.

`CN(C)C(=N)N=C(N)N` [metformin]: in experiment [5] (HUVEC PKCβ-AEQ cells, after addition of external calcium), the emission of photons entry was “lower than 40,000 cps”. In experiment [5] (HUVEC), the “inhibition of the PKCβ-AEQ probe translocation (grade)” value is “good inhibition” and the “translocation induced by glucose under hyperglycaemia conditions” value is given as “inhibits the translocation”.

Consider “EGF: epidermic growth factor, maximal activator of p66shc translocation”, for which the emission of photons result in experiment [6] (A431 cells, absence of external calcium) is given as “lower than 100 cps”; in experiment [6] (A431 p66shc-AEQ cells, EGF 100 ng/ml, after addition of external calcium), > 100,000 cps.

Consider Nociceptine, for which the “emission … of aequorin” value in experiment [7] is on record as “over 80,000 photons emitted per second”.
